Test results as given in PubChem BioAssay AID2060341 (Molecular Pharmacology Branch, DTP, NCI, 2025).
“And” between values parts separate entries of the source, which are not always exact repeats. Equal values may be shown once. Each block holds one molecule with its values, some of them ahead of it.

Tested on: 327498-153-R-J2-PDC multicell spheroid viability
Assay: Anticancer human tumor 327498-153-R-J2-PDC patient-derived uterine carcinosarcoma cell line growth inhibition [IpAb]
Conditions: for viability, T/C: stronger effect = lower value
Outline: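 Spheroids of 60% malignant cells, 25% HUVEC and 15% MSC were exposed to targeted agents combined with ipatasertib or abemaciclib. Doses started at or near clinical Cmax (10 microM when unknown) and fell in half-log steps.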

[1] = curve of first compound, second compound 0.01 µM
[2] = curve of first compound, second compound 0.0316 µM
[3] = curve of first compound, second compound 0.1 µM
[4] = curve of first compound, second compound 0.316 µM
[5] = curve of first compound, second compound 1 µM
[6] = second compound 0.01 µM, first compound 0.00949 µM
[7] = second compound 0.01 µM, first compound 0.03 µM
[8] = second compound 0.01 µM, first compound 0.0949 µM
[9] = second compound 0.01 µM, first compound 0.3 µM
[10] = second compound 0.0316 µM, first compound 0.00949 µM
[11] = second compound 0.0316 µM, first compound 0.03 µM
[12] = second compound 0.0316 µM, first compound 0.0949 µM
[13] = second compound 0.0316 µM, first compound 0.3 µM
[14] = second compound 0.1 µM, first compound 0.00949 µM
[15] = second compound 0.1 µM, first compound 0.03 µM
[16] = second compound 0.1 µM, first compound 0.0949 µM
[17] = second compound 0.1 µM, first compound 0.3 µM
[18] = second compound 0.316 µM, first compound 0.00949 µM
[19] = second compound 0.316 µM, first compound 0.03 µM
[20] = second compound 0.316 µM, first compound 0.0949 µM
[21] = second compound 0.316 µM, first compound 0.3 µM
[22] = second compound 1 µM, first compound 0.00949 µM
[23] = second compound 1 µM, first compound 0.03 µM
[24] = second compound 1 µM, first compound 0.0949 µM
[25] = second compound 1 µM, first compound 0.3 µM
[26] = second compound 0.1 µM, first compound 0.000949 µM
[27] = second compound 0.1 µM, first compound 0.003 µM
[28] = second compound 0.316 µM, first compound 0.000949 µM
[29] = second compound 0.316 µM, first compound 0.003 µM
[30] = second compound 1 µM, first compound 0.000949 µM
[31] = second compound 1 µM, first compound 0.003 µM
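Throughout, for viability, T/C: 100% = DMSO vehicle control viability.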

SMILES: CC(C)n1nc(-c2ccc3oc(N)nc3c2)c2c(N)ncnc21 + CCN1CCN(Cc2ccc(Nc3ncc(F)c(-c4cc(F)c5nc(C)n(C(C)C)c5c4)n3)nc2)CC1
IC50 [1]: 0.00733 µM | IC50 [2]: 0.00458 µM | IC50 [3]: 0.00201 µM | IC50 [4]: 0.00103 µM | IC50 [5]: 0.00117 µM | viability, T/C (second compound 0.01 µM, first compound 0.000316 µM): 90.9% | viability, T/C (second compound 0.01 µM, first compound 0.001 µM): 77.3% | viability, T/C (second compound 0.01 µM, first compound 0.00316 µM): 68.1% | viability, T/C (second compound 0.01 µM, first compound 0.01 µM): 45.6% | viability, T/C (second compound 0.01 µM, first compound 0.0316 µM): 21.2% | viability, T/C (second compound 0.01 µM, first compound 0.1 µM): 16.1% | viability, T/C (second compound 0.0316 µM, first compound 0.000316 µM): 68.7% | viability, T/C (second compound 0.0316 µM, first compound 0.001 µM): 73.6% | viability, T/C (second compound 0.0316 µM, first compound 0.00316 µM): 53.8% | viability, T/C (second compound 0.0316 µM, first compound 0.01 µM): 37.1% | viability, T/C (second compound 0.0316 µM, first compound 0.0316 µM): 19.8% | viability, T/C (second compound 0.0316 µM, first compound 0.1 µM): 14.8% | viability, T/C (second compound 0.1 µM, first compound 0.000316 µM): 58.2% | viability, T/C (second compound 0.1 µM, first compound 0.001 µM): 50.3% | viability, T/C (second compound 0.1 µM, first compound 0.00316 µM): 49.8% | viability, T/C (second compound 0.1 µM, first compound 0.01 µM): 31.4% | viability, T/C (second compound 0.1 µM, first compound 0.0316 µM): 20.7% | viability, T/C (second compound 0.1 µM, first compound 0.1 µM): 14.6% | viability, T/C (second compound 0.316 µM, first compound 0.000316 µM): 59.2% | viability, T/C (second compound 0.316 µM, first compound 0.001 µM): 50.1% | viability, T/C (second compound 0.316 µM, first compound 0.00316 µM): 39.5% | viability, T/C (second compound 0.316 µM, first compound 0.01 µM): 28.5% | viability, T/C (second compound 0.316 µM, first compound 0.0316 µM): 20.3% | viability, T/C (second compound 0.316 µM, first compound 0.1 µM): 15.2% | viability, T/C (second compound 1 µM, first compound 0.000316 µM): 56.9% | viability, T/C (second compound 1 µM, first compound 0.001 µM): 50.8% | viability, T/C (second compound 1 µM, first compound 0.00316 µM): 46.3% | viability, T/C (second compound 1 µM, first compound 0.01 µM): 35.7% | viability, T/C (second compound 1 µM, first compound 0.0316 µM): 23.1% | viability, T/C (second compound 1 µM, first compound 0.1 µM): 19.9%

SMILES: CC(C)(C)c1cnc(CSc2cnc(NC(=O)C3CCNCC3)s2)o1 + CCN1CCN(Cc2ccc(Nc3ncc(F)c(-c4cc(F)c5nc(C)n(C(C)C)c5c4)n3)nc2)CC1
IC50 [1]: 0.142 µM | IC50 [2]: 0.105 µM | IC50 [3]: 0.0834 µM | IC50 [4]: 0.0375 µM | IC50 [5]: 0.0344 µM | viability, T/C [6]: 90% | viability, T/C [7]: 80.7% | viability, T/C [8]: 75.5% | viability, T/C [9]: 2.61% | viability, T/C (second compound 0.01 µM, first compound 0.949 µM): 0.63% | viability, T/C (second compound 0.01 µM, first compound 3 µM): 0.6% | viability, T/C [10]: 76.8% | viability, T/C [11]: 68.4% | viability, T/C [12]: 54.6% | viability, T/C [13]: 1.44% | viability, T/C (second compound 0.0316 µM, first compound 0.949 µM): 0.56% | viability, T/C (second compound 0.0316 µM, first compound 3 µM): 0.66% | viability, T/C [14]: 57.6% | viability, T/C [15]: 67.6% | viability, T/C [16]: 48.4% | viability, T/C [17]: 0.6% | viability, T/C (second compound 0.1 µM, first compound 0.949 µM): 0.61% | viability, T/C (second compound 0.1 µM, first compound 3 µM): 0.61% | viability, T/C [18]: 51.6% | viability, T/C [19]: 54.3% | viability, T/C [20]: 37.6% | viability, T/C [21]: 0.81% | viability, T/C (second compound 0.316 µM, first compound 0.949 µM): 0.6% | viability, T/C (second compound 0.316 µM, first compound 3 µM): 0.72% | viability, T/C [22]: 55.4% | viability, T/C [23]: 50.8% | viability, T/C [24]: 29.8% | viability, T/C [25]: 0.56% | viability, T/C (second compound 1 µM, first compound 0.949 µM): 1.62% | viability, T/C (second compound 1 µM, first compound 3 µM): 0.76%

IC50 (curve of compound): 0.028 µM and 0.0196 µM
SMILES: Cn1ncnc1[C@H]1c2n[nH]c(=O)c3cc(F)cc(c23)N[C@@H]1c1ccc(F)cc1
viability, T/C (compound 0.000316 µM): 109% and 99% | viability, T/C (compound 0.001 µM): 106% and 99.6% | viability, T/C (compound 0.00316 µM): 99.2% and 92.1% | viability, T/C (compound 0.01 µM): 74.8% and 65.7% | viability, T/C (compound 0.0316 µM): 47.8% and 39% | viability, T/C (compound 0.1 µM): 26.5% and 21.4%

SMILES: CC(=O)c1c(C)c2cnc(Nc3ccc(N4CCNCC4)cn3)nc2n(C2CCCC2)c1=O + CC(C)NCC(C(=O)N1CCN(c2ncnc3c2C(C)CC3O)CC1)c1ccc(Cl)cc1
IC50 [3]: > 0.3 µM | IC50 [4]: 0.0457 µM | IC50 [5]: 0.00723 µM | IC50 (curve of first compound, second compound 3.16 µM): 0.00134 µM | IC50 (curve of first compound, second compound 10 µM): < 0.000949 µM | viability, T/C [26]: 96.4% | viability, T/C [27]: 101% | viability, T/C [14]: 91.2% | viability, T/C [15]: 68.8% | viability, T/C [16]: 65.9% | viability, T/C [17]: 55.4% | viability, T/C [28]: 81.6% | viability, T/C [29]: 71.2% | viability, T/C [18]: 68.2% | viability, T/C [19]: 51.8% | viability, T/C [20]: 44.1% | viability, T/C [21]: 41.5% | viability, T/C [30]: 61.5% | viability, T/C [31]: 57.5% | viability, T/C [22]: 48% | viability, T/C [23]: 34.1% | viability, T/C [24]: 34.5% | viability, T/C [25]: 31.3% | viability, T/C (second compound 3.16 µM, first compound 0.000949 µM): 51.7% | viability, T/C (second compound 3.16 µM, first compound 0.003 µM): 46.2% | viability, T/C (second compound 3.16 µM, first compound 0.00949 µM): 35.2% | viability, T/C (second compound 3.16 µM, first compound 0.03 µM): 33.4% | viability, T/C (second compound 3.16 µM, first compound 0.0949 µM): 25% | viability, T/C (second compound 3.16 µM, first compound 0.3 µM): 24.6% | viability, T/C (second compound 10 µM, first compound 0.000949 µM): 33.4% | viability, T/C (second compound 10 µM, first compound 0.003 µM): 36.7% | viability, T/C (second compound 10 µM, first compound 0.00949 µM): 28.1% | viability, T/C (second compound 10 µM, first compound 0.03 µM): 20.9% | viability, T/C (second compound 10 µM, first compound 0.0949 µM): 21.9% | viability, T/C (second compound 10 µM, first compound 0.3 µM): 21.9%

SMILES: CC(=O)c1c(C)c2cnc(Nc3ccc(N4CCNCC4)cn3)nc2n(C2CCCC2)c1=O + CCN1CCN(Cc2ccc(Nc3ncc(F)c(-c4cc(F)c5nc(C)n(C(C)C)c5c4)n3)nc2)CC1
IC50 [1]: > 0.3 µM | IC50 [2]: > 0.3 µM | IC50 [3]: > 0.3 µM | IC50 [4]: > 0.3 µM | IC50 [5]: > 0.3 µM | viability, T/C (second compound 0.01 µM, first compound 0.000949 µM): 91.3% | viability, T/C (second compound 0.01 µM, first compound 0.003 µM): 88.8% | viability, T/C [6]: 91% | viability, T/C [7]: 82.3% | viability, T/C [8]: 70.7% | viability, T/C [9]: 59.1% | viability, T/C (second compound 0.0316 µM, first compound 0.000949 µM): 77.1% | viability, T/C (second compound 0.0316 µM, first compound 0.003 µM): 74.8% | viability, T/C [10]: 72.8% | viability, T/C [11]: 65% | viability, T/C [12]: 59.9% | viability, T/C [13]: 54.8% | viability, T/C [26]: 66.2% | viability, T/C [27]: 61% | viability, T/C [14]: 67.3% | viability, T/C [15]: 56.9% | viability, T/C [16]: 59.9% | viability, T/C [17]: 57.1% | viability, T/C [28]: 58.3% | viability, T/C [29]: 58.2% | viability, T/C [18]: 62% | viability, T/C [19]: 54.6% | viability, T/C [20]: 56.4% | viability, T/C [21]: 60.6% | viability, T/C [30]: 55.5% | viability, T/C [31]: 57.9% | viability, T/C [22]: 62% | viability, T/C [23]: 54.1% | viability, T/C [24]: 57.6% | viability, T/C [25]: 56.2%
